Reference: patent US5391800A, “Method for inhibition of cell motility by sphingosine-1-phosphate, its derivatives and mimetics and method of synthesizing sphingosine-1-phosphate and its derivatives” (The Biomembrane Institute, priority 1993, dated 1995)
Entries after “also recorded” stand apart in the source; their conditions may differ.

Columns and labels:
B16/F1 melanoma cells [1] = test: Growth of B16/F1 melanoma cells (cell count after 48 hr); assay type: cell-based, mouse; details: for Growth-inhibitory effect / activity at 10 µM: 10 μM; for Growth-inhibitory effect: B16/F1 cells
Experimental: *Mean ± S.E. (n = 3). For controls (defined as 100%), cell number was
10^5 cells were seeded and
cultured on a 35 mm plastic dish in Dulbecco's modified Eagle's medium
containing 2% fetal bovine serum in the presence or absence of SPN
derivatives. 48 hr later, cells were counted.

B16/F1 melanoma cells [2] = test: Chemoinvasion of B16/F1 cells through thick MATRI-GEL layer on transwell filter; assay type: cell-based, mouse; details: for Effect on invasion compared with SPN-1-P: FIG. 10; for % invasion: percent relative to control, mean ± S.E., n = 3 or 4, concentration not given, 4200 min
Experimental: (§1) The assays for determining chemotactic cell motility and chemoinvasion can be performed using transwell plates with a polycarbonate membrane filter (pore size 8 μm) (Costar Scientific, Cambridge, Mass.). Aliguots, e.g., 50 μl, of an aqueous solution of MATRI-GEL (Collaborative Research, Bedford, Mass.) containing SPN-1-P or other inhibitor (e.g., 20 μg/ml for chemotactic motility assay or 200 μg/ml for chemoinvasion assay), is added to each well and dried overnight. The filter is then fitted onto the lower chamber plate. The lower chamber can contain conditioned medium (CM) (i.e., medium used for splenic stromal cell culture, and containing motility factor secreted by these cells), e.g., 0.6 ml, with or without SPN-1-P or other inhibitor. To the upper chamber is added, e.g., about 100 μl, of cell suspension (5×10^4 cells/ml for invasion assay, 5×10^5 cells/ml for motility assay), which is then incubated in 5% CO2 at 37° C. for 70-72 hours (invasion assay) or 20 hours (motility assay). After incubation, cells remaining in the upper chamber are wiped off with a cotton swab, and cells which had migrated to the lower chamber side of the filter are fixed in methanol for 30 seconds and stained with 0.05% toluidine blue. The filter is removed, the stain is solubilized in 10% acetic acid (e.g., 0.1 ml for invasion assay, 0.5 ml for motility assay), and color intensity (optical density) is quantitated by ELISA reading at 630 nm. Using SPN-1-P, a linear relationship was observed between cell number and toluidine blue optical density (FIG. 7).
(§2) Assays were performed using transwell plates with polycarbonate membrane filters (pore size 8 μm) (Costar Scientific, Cambridge, Mass.). 50 μl aliguots of an aqueous solution of MATRI-GEL (Collaborative Research, Bedford, Mass.) containing 20 μg/ml (for chemotactic motility assay) or 200 μg/ml (for chemoinvasion assay) were added to each well and dried overnight. The filter was fitted onto the lower chamber plate. The lower chamber contained 0.6 ml conditioned medium (CM) (i.e., medium used for splenic stromal cell culture, and containing motility factor secreted by these cells) with or without the suspected inhibitor. To the upper chamber was added 100 μl of cell suspension (5×10^4 cells/ml for invasion assay, 5×10^5 cells/ml for motility assay), which was then incubated in 5% CO2 at 37° C. for 70-72 hours (invasion assay) or 20 hours (motility assay). After incubation, cells remaining in the upper chamber were wiped off with a cotton swab, and cells which had migrated to the lower chamber side of the filter were fixed in methanol for 30 seconds and stained with 0.05% toluidine blue. The filter was removed, the stain was solubilized in 10% acetic acid (0.1 ml for invasion assay, 0.5 ml for motility assay), and color intensity (optical density) was quantitated by ELISA reading at 630 nm. A linear relationship was observed between cell number and toluidine blue optical density (FIG. 7.).
Chemoinvasion was measured by the ability of tumor cells in CM (as described above) to migrate through a thick layer of MATRI-GEL during a prolonged incubation period (70 hours). This property is distinct from chemotactic cell motility, which involves a much shorter incubation period (20 hours) and a thin layer of MATRI-GEL. For the chemoinvasion assay, 10 μg of MATRI-GEL was applied to a polycarbonate transwell filter and migration was observed following 70 hours incubation (based on results shown in FIG. 8).

B16/F10 melanoma cells = test: Phagokinetic activity of B16/F10 melanoma cells on gold sol-coated plates; assay type: cell-based, mouse; details: for Cleared area: mean ± S.D., n > 50; for Area cleared by B16/F10 tumor cells: SPN-1-P at 1.0 or 0.1 μM
Experimental: Phagokinetic activity is measured by the ability of cells to ingest foreign particles while moving. […] A uniform coating of gold particles is prepared on glass coverslips precoated with bovine serum albumin, and coverslips are rinsed repeatedly to remove non-adhering or loosely-adhering gold particles. Freshly-prepared neutrophils or tumor cells detached from culture are placed in a Petri dish containing the gold sol-coated plate, and incubated for about 2 hours (for human neutrophils) or about 18 hours (for tumor cells). The coverslips are fixed for 1 hour in a 4% formaldehyde solution in phosphate-buffered saline (PBS) and mounted on microscope slides. The phagokinetic tracks are observed on a television connected to a light microscope (Nikon, Tokyo, Japan). Tracks on the television are transferred to translucent sheets, which are then photocopied. Phagokinetic activity is quantitated by cutting and weighing the swept area in the copy.
A uniform coating of gold particles was prepared on glass coverslips precoated with bovine serum albumin, and the coverslips were rinsed repeatedly to remove non-adhering or loosely-adhering gold particles. Freshly-prepared neutrophils or tumor cells detached from culture were placed in a Petri dish containing the gold sol-coated plate, and incubated for 2 hours (for human neutrophils) or 18 hours (for tumor cells). The coverslips were fixed for 1 hour in 4% formaldehyde solution in phosphate-buffered saline (PBS) and mounted on microscope slides. The phagokinetic tracks were observed on a television connected to a light microscope (Nikon, Tokyo, Japan). Tracks on the television were transferred to translucent sheets, which were then photocopied. Phagokinetic activity was quantitated by cutting and weighing the swept area in the copy.

B16/F1 melanoma cells [3] = test: Chemotactic motility of B16/F1 cells through MATRI-GEL-coated transwell filter; assay type: cell-based, mouse; details: for % motility: percent relative to control, n = 3 or 4, concentration not given
Experimental: as §1, §2
In experiments with different quantities of MATRI-GEL, cell migration through transwell filter was maximal with 1 μg/well was applied, and when CM was used (FIG. 8). Therefore, chemotactic cell motility, as affected by various SPN derivatives, was assayed under these conditions.
*Mean ± S.E. of percent relative to control (n = 4). Actual O.D. value
and 0.147 (HT1080). 6 × 10^4 cells were placed on a transwell
filter coated with 1.0 μg MATRIGEL in the upper chamber, and cultured
for 18 hours in the presence of CM and SPN1-P in the lower chamber.

[4] = tested on: PKC of B16/F1 melanoma cells; test: PKC activity of B16/F1 melanoma cells (32P incorporation into histone IIIS); assay type: biochemical, mouse; details: for Inhibitory effect on PKC activity: B16/F1 cells; for % PKC activity: control = 100%, mean ± S.E., n = 3; for PKC inhibition: concentration not given
Experimental: Effects of SPN derivatives on protein kinase C activity and cell growth of B16/F1 cells was also investigated. […] Toxicity of these compounds to B16/F1 cells and human neutrophils was also examined using a trypan blue exclusion assay after 1 hour incubation with the compounds.
*Mean ± S.E. (n = 3). For controls (defined as 100%), PKC activity was
33225 cpm per tube per 20 min, as measured by ^32 P incorporation int

[5] = Mus musculus, B16-F1, 48 hr, control = 100%, mean ± S.E., n = 3
[6] = Mus musculus, B16-F10, 1.0 μM, 18 hours, read-out: % of control (CM+) value
[7] = comparison with other sphingolipids

CCCCCCCCCCCCC/C=C/[C@@H](O)[C@@H](N)CO [SPN, sphingosine]
Growth-inhibitory effect (B16/F1 melanoma cells [1]): moderate growth-inhibitory effect
activity at 1 µM (B16/F1 melanoma cells [1]; [5]): 101 ± 1%
activity at 5 µM (B16/F1 melanoma cells [1]; [5]): 87 ± 10%
activity at 10 µM (B16/F1 melanoma cells [1]; [5]): 78 ± 4%
Effect on invasion compared with SPN-1-P (B16/F1 melanoma cells [2]; 70 hours): weaker effect
% invasion (B16/F1 melanoma cells [2]): 16 ± 7%
Cleared area less control (CM-) value (B16/F10 melanoma cells; 1.0 μM, 18 hours): 0.4 × 10^3 μm^2
Cleared area (B16/F10 melanoma cells; 1.0 μM, 18 hours): 2.5 ± 1.0 × 10^3 μm^2
activity at 1 µM (B16/F10 melanoma cells; [6]): 8%
Area cleared by B16/F10 tumor cells (B16/F10 melanoma cells): reduced the area cleared by tumor cells
inhibition at 10 µM (B16/F1 melanoma cells [3]; Mus musculus, B16-F1, 20 h, read-out: Motility blocked): 100%
Inhibitory effect on PKC activity ([4]; 75 μM): strong inhibitory effect
% PKC activity ([4]; 75 μM): 34 ± 7%

CCCCCCCCCCCCC/C=C/[C@@H](O)[C@@H](N)COP(=O)(O)O [SPN-1-P, sphingosine-1-phosphate]
Growth-inhibitory effect (B16/F1 melanoma cells [1]): no growth-inhibitory effect
activity at 0.01 µM (B16/F1 melanoma cells [1]; Mus musculus, B16-F1, 0.01 μM, 48 hr, control = 100%, mean ± S.E., n = 3): 103 ± 10%
activity at 0.1 µM (B16/F1 melanoma cells [1]; Mus musculus, B16-F1, 0.1 μM, 48 hr, control = 100%, mean ± S.E., n = 3): 97 ± 5%
activity at 1 µM (B16/F1 melanoma cells [1]; [5]): 105 ± 10%
activity at 5 µM (B16/F1 melanoma cells [1]; [5]): 96 ± 2%
activity at 10 µM (B16/F1 melanoma cells [1]; [5]): 87 ± 10%
Inhibition of invasion (B16/F1 melanoma cells [2]; 10^-8 or 10^-7 M, 70 hours): strongly inhibited
Inhibition of chemoinvasion compared with other sphingolipids (B16/F1 melanoma cells [2]; [7]): unexpectedly superior inhibition
Cleared area less control (CM-) value (B16/F10 melanoma cells; 0.0001 μM, 18 hours): 3.9 × 10^3 μm^2
Cleared area (B16/F10 melanoma cells; 0.0001 μM, 18 hours): 6.0 ± 2.7 × 10^3 μm^2
Cleared area less control (CM-) value (B16/F10 melanoma cells; 0.01 μM, 18 hours): 2.0 × 10^3 μm^2
Cleared area (B16/F10 melanoma cells; 0.01 μM, 18 hours): 4.1 ± 1.4 × 10^3 μm^2
Cleared area less control (CM-) value (B16/F10 melanoma cells; 0.1 μM, 18 hours): 1.3 × 10^3 μm^2
Cleared area (B16/F10 melanoma cells; 0.1 μM, 18 hours): 3.4 ± 1.3 × 10^3 μm^2
Cleared area less control (CM-) value (B16/F10 melanoma cells; 1.0 μM, 18 hours): 0.3 × 10^3 μm^2
Cleared area (B16/F10 melanoma cells; 1.0 μM, 18 hours): 2.4 ± 1.1 × 10^3 μm^2
activity at 0.0001 µM (B16/F10 melanoma cells; Mus musculus, B16-F10, 0.0001 μM, 18 hours, read-out: % of control (CM+) value): 81%
activity at 0.01 µM (B16/F10 melanoma cells; Mus musculus, B16-F10, 0.01 μM, 18 hours, read-out: % of control (CM+) value): 42%
activity at 0.1 µM (B16/F10 melanoma cells; Mus musculus, B16-F10, 0.1 μM, 18 hours, read-out: % of control (CM+) value): 27%
activity at 1 µM (B16/F10 melanoma cells; [6]): 6%
Area cleared by B16/F10 tumor cells (B16/F10 melanoma cells): greatly reduced
Inhibition of B16/F1 motility, comparison (B16/F1 melanoma cells [3]; FIG. 9, 20 hour): inhibited most strongly; also recorded: same dose-dependent inhibitory effect on cell motility
inhibition at 0.1 µM (B16/F1 melanoma cells [3]; Mus musculus, B16-F1, 10^-7 M, 20 hour, CM, lower chamber, read-out: Motility blocked): 100%
inhibition at 0.01 µM (B16/F1 melanoma cells [3]; Mus musculus, B16-F1, 10^-8 M, 20 hour, CM, lower chamber, read-out: Motility blocked): 90%
activity at 0.001 µM (B16/F1 melanoma cells [3]; Mus musculus, B16-F1, F1, 0.001 μM, 18 hours, relative to control, mean ± S.E., n = 4): 82 ± 44%
activity at 0.01 µM (B16/F1 melanoma cells [3]; Mus musculus, B16-F1, F1, 0.01 μM, 18 hours, relative to control, mean ± S.E., n = 4): 12 ± 7%
activity at 0.1 µM (B16/F1 melanoma cells [3]; Mus musculus, B16-F1, F1, 0.1 μM, 18 hours, relative to control, mean ± S.E., n = 4): 6 ± 2%
activity at 1 µM (B16/F1 melanoma cells [3]; Mus musculus, B16-F1, F1, 1.0 μM, 18 hours, relative to control, mean ± S.E., n = 4): 8 ± 2%
Susceptibility of B16/F1 cells (chemotactic motility) (B16/F1 melanoma cells [3]; Table V, in words): high
Inhibition of cell motility compared with other sphingolipids (B16/F1 melanoma cells [3]; [7]): much stronger than that for SPN, N,N-dimethylsphingosine (DMS), or N,N,N-trimethylsphingosine (TMS); also recorded: unexpectedly superior inhibition
% motility (B16/F1 melanoma cells [3]; mean ± S.E.): 5 ± 1%
% PKC activity ([4]; 10 μM): 121 ± 10%
Inhibitory effect on PKC activity ([4]; 75 μM): no inhibitory effect
% PKC activity ([4]; 75 μM): 108 ± 32%
PKC inhibition [4]: does not inhibit PKC

CCCCCCCCCCCCC/C=C/[C@@H](O)[C@H](CO)[N+](C)(C)C [TMS, N,N,N-trimethylsphingosine]
Growth-inhibitory effect (B16/F1 melanoma cells [1]): strong
activity at 1 µM (B16/F1 melanoma cells [1]; [5]): 88 ± 7%
activity at 5 µM (B16/F1 melanoma cells [1]; [5]): 77 ± 8%
activity at 10 µM (B16/F1 melanoma cells [1]; [5]): 11 ± 1%
Effect on invasion compared with SPN-1-P (B16/F1 melanoma cells [2]; 70 hours): weaker effect
% invasion (B16/F1 melanoma cells [2]): 75 ± 8%
Cleared area less control (CM-) value (B16/F10 melanoma cells; 1.0 μM, 18 hours): 3.5 × 10^3 μm^2
Cleared area (B16/F10 melanoma cells; 1.0 μM, 18 hours): 5.6 ± 2.7 × 10^3 μm^2
activity at 1 µM (B16/F10 melanoma cells; [6]): 73%
Area cleared by B16/F10 tumor cells (B16/F10 melanoma cells): reduced the area cleared by tumor cells
Inhibition of motility (B16/F1 melanoma cells [3]; 10^-5 M, 20 hour): only weak inhibition of motility
% motility (B16/F1 melanoma cells [3]; mean ± S.E.): 100 ± 19%
Inhibitory effect on PKC activity ([4]; 75 μM): strong inhibitory effect
% PKC activity ([4]; 75 μM): 16 ± 3%
PKC inhibition [4]: in striking contrast to DMS and TMS, SPN-1-P does not inhibit PKC
